Holding throughout (type): biochemical
What all share (details): FDA-approved drug screen

Assay [1] concerns the target T1, recombinant PRL-1 (Homo sapiens, UniProt Q93096).
T1 construct: 6xHis (N, cleaved yes); made in house; host or cells: E. coli One Shot BL21 Star
T1 sequence (Q93096 1-173): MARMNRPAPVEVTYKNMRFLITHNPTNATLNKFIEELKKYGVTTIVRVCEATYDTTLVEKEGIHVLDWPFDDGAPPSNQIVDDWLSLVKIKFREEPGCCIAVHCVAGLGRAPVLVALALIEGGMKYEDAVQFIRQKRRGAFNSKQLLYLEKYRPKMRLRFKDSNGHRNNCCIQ
As to the kind of experiment: In vitro phosphatase assay (DiFMUP hydrolysis), PRL-1. Note: test concentration or dose not given here.

Assay [2] concerns the target T2, recombinant PRL-2 (Homo sapiens, UniProt Q12974).
T2 construct: 6xHis (N, cleaved yes); made in house; host or cells: E. coli One Shot BL21 Star
T2 sequence (Q12974 1-167): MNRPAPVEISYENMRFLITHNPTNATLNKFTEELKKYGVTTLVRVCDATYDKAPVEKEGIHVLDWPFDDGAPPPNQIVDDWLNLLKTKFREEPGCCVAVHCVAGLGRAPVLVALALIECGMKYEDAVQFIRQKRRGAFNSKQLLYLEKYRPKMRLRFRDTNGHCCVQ
As to the kind of experiment: In vitro phosphatase assay (DiFMUP hydrolysis), PRL-2.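 Note: PRL-2 activity read as DiFMUP hydrolysis after 20 min at room temperature with drug, enzyme first pre-reduced at 4 °C for 20 min.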

Assay [3] deals with T3, recombinant PRL-3 (Homo sapiens, UniProt O75365).
T3 construct: 6xHis (N, cleaved yes); made in house; host or cells: E. coli One Shot BL21 Star
As to the kind of experiment: In vitro phosphatase assay (DiFMUP hydrolysis), PRL-3. Note: test concentration or dose not given here.

Structures can show the parent of a compound that is named as a salt.

T3 sequence (O75365 whole entry): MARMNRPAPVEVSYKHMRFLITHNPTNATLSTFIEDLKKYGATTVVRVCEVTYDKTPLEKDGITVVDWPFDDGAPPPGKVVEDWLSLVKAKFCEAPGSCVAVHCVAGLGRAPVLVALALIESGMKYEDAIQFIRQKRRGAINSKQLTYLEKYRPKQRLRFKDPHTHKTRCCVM

In the case of `CN(CCOc1ccc(CC2SC(=O)NC2=O)cc1)c1ccccn1` (stereo not drawn) [Rosiglitazone], the “% Phosphatase Activity (compared to DMSO) PRL-1” value in assay [1] (compared to DMSO) is given as 90%. Besides, in assay [2] (compared to DMSO), the “% Phosphatase Activity (compared to DMSO) PRL-2” value amounted to 111%. For the same molecule, the “% Phosphatase Activity (compared to DMSO) PRL-3” value in assay [3] (compared to DMSO) is on record as 79%.
For `CC(C)c1nc(N(C)S(C)(=O)=O)nc(-c2ccc(F)cc2)c1/C=C/[C@@H](O)C[C@@H](O)CC(=O)O` [Rosuvastatin Calcium], in that order: 107%, 99% and 83%.
The corresponding values for `CCCN(CCc1cccs1)[C@H]1CCc2c(O)cccc2C1` [Rotigotine] are 100%, 99% and 82%.
The corresponding values for `CC(=O)OCC(=O)NCCCOc1cccc(CN2CCCCC2)c1` [Roxatidine Acetate HCl] are 96%, 111% and 95%.
Regarding `CC[C@H]1OC(=O)[C@H](C)[C@@H](O[C@H]2C[C@@](C)(OC)[C@@H](O)[C@H](C)O2)[C@H](C)[C@@H](O[C@@H]2O[C@H](C)C[C@H](N(C)C)[C@H]2O)[C@](C)(O)C[C@@H](C)/C(=N\OCOCCOC)[C@H](C)[C@@H](O)[C@]1(C)O` [Roxithromycin], the “% Phosphatase Activity (compared to DMSO) PRL-1” value in assay [1] (compared to DMSO) came out at 93%. In assay [2] (compared to DMSO), the “% Phosphatase Activity (compared to DMSO) PRL-2” value turned out to be 105%. Also, in assay [3] (compared to DMSO), the “% Phosphatase Activity (compared to DMSO) PRL-3” value was determined as 70%.
For `CNCc1ccc(-c2[nH]c3cc(F)cc4c3c2CCNC4=O)cc1` [Rucaparib (AG-014699,PF-01367338)], in that order: 2402%, 3226% and 2134%.
For `NC(=O)c1cn(Cc2c(F)cccc2F)nn1` [Rufinamide], in that order: 91%, 91% and 77%.
The corresponding values for `Cc1cncc(CN2CCC(=C3c4ccc(Cl)cc4CCc4cccnc43)CC2)c1.O=C(O)/C=C/C(=O)O` [Rupatadine Fumarate] are 92%, 100% and 98%.
Consider `C[C@@H]1O[C@@H](OC[C@H]2O[C@@H](Oc3c(-c4ccc(O)c(O)c4)oc4cc(O)cc(O)c4c3=O)[C@H](O)[C@@H](O)[C@@H]2O)[C@H](O)[C@H](O)[C@H]1O` [Rutin], for which the “% Phosphatase Activity (compared to DMSO) PRL-1” value in assay [1] (compared to DMSO) worked out at 88%. Further, the “% Phosphatase Activity (compared to DMSO) PRL-2” value in assay [2] (compared to DMSO) turned out to be 82%. For the same molecule, the “% Phosphatase Activity (compared to DMSO) PRL-3” value in assay [3] (compared to DMSO) was determined as 71%.
With `N#CC[C@H](C1CCCC1)n1cc(-c2ncnc3[nH]ccc23)cn1` [Ruxolitinib (INCB018424)], the “% Phosphatase Activity (compared to DMSO) PRL-1” value in assay [1] (compared to DMSO) is on record as 116%. Further, the “% Phosphatase Activity (compared to DMSO) PRL-2” value in assay [2] (compared to DMSO) turned out to be 132%. For the same molecule, in assay [3] (compared to DMSO), the “% Phosphatase Activity (compared to DMSO) PRL-3” value is 66%.
The corresponding values for `COc1ccc([C@H]2CNC(=O)C2)cc1OC1CCCC1` [S- (+)-Rolipram] are 107%, 110% and 87%.
The corresponding values for `CCn1c(=O)c(-c2cc[nH]n2)cc2c(C)nc(N)nc21` [SAR245409 (XL765)] are 89%, 74% and 74%.
Consider `C[C@H](NCc1ccc(OCc2cccc(F)c2)cc1)C(N)=O` [Safinamide Mesylate], for which, in assay [1] (compared to DMSO), the “% Phosphatase Activity (compared to DMSO) PRL-1” value turned out to be 103%. Further, in assay [2] (compared to DMSO), the “% Phosphatase Activity (compared to DMSO) PRL-2” value was 112%. Also, the “% Phosphatase Activity (compared to DMSO) PRL-3” value in assay [3] (compared to DMSO) was 86%.
Take `CC(C)(C)NCC(O)c1ccc(O)c(CO)c1.CC(C)(C)NCC(O)c1ccc(O)c(CO)c1.O=S(=O)(O)O` (stereo not drawn) [Salbutamol Sulfate]: in assay [1] (compared to DMSO), the “% Phosphatase Activity (compared to DMSO) PRL-1” value was determined as 94%. Moreover, the “% Phosphatase Activity (compared to DMSO) PRL-2” value in assay [2] (compared to DMSO) came to 90%. In assay [3] (compared to DMSO), the “% Phosphatase Activity (compared to DMSO) PRL-3” value was determined as 88%.
The corresponding values for `O=C(O)c1ccccc1O` [Salicylic acid] are 103%, 124% and 98%.
The corresponding values for `OCc1cc(C(O)CNCCCCCCOCCCCc2ccccc2)ccc1O` (stereo not drawn) [Salmeterol Xinafoate] are 146%, 136% and 110%.
For `CN1CCN(CCOc2cc(OC3CCOCC3)c3c(Nc4c(Cl)ccc5c4OCO5)ncnc3c2)CC1` [Saracatinib (AZD0530)], in that order: 99%, 98% and 79%.
On to `O=C(O)c1cn(-c2ccc(F)cc2)c2cc(N3CCNCC3)c(F)cc2c1=O` [Sarafloxacin HCl], for which, in assay [1] (compared to DMSO), the “% Phosphatase Activity (compared to DMSO) PRL-1” value is on record as 108%. The “% Phosphatase Activity (compared to DMSO) PRL-2” value in assay [2] (compared to DMSO) turned out to be 108%. The “% Phosphatase Activity (compared to DMSO) PRL-3” value in assay [3] (compared to DMSO) is listed as 116%.
Consider `N#C[C@@H]1C[C@@H]2C[C@@H]2N1C(=O)[C@@H](N)C12CC3CC(CC(O)(C3)C1)C2` [Saxagliptin hydrate], for which the “% Phosphatase Activity (compared to DMSO) PRL-1” value in assay [1] (compared to DMSO) is given as 93%. The “% Phosphatase Activity (compared to DMSO) PRL-2” value in assay [2] (compared to DMSO) is 80%. Further, the “% Phosphatase Activity (compared to DMSO) PRL-3” value in assay [3] (compared to DMSO) turned out to be 86%.
With `N#C[C@@H]1C[C@@H]2C[C@@H]2N1C(=O)[C@@H](N)C12CC3CC(CC(O)(C3)C1)C2` [Saxagliptin], in assay [1] (compared to DMSO), the “% Phosphatase Activity (compared to DMSO) PRL-1” value amounted to 106%. In addition, the “% Phosphatase Activity (compared to DMSO) PRL-2” value in assay [2] (compared to DMSO) came to 113%. Besides, the “% Phosphatase Activity (compared to DMSO) PRL-3” value in assay [3] (compared to DMSO) turned out to be 79%.
Regarding `Cc1ncc([N+](=O)[O-])n1CC(C)O` (stereo not drawn) [Secnidazole], in assay [1] (compared to DMSO), the “% Phosphatase Activity (compared to DMSO) PRL-1” value is 112%. Also, in assay [2] (compared to DMSO), the “% Phosphatase Activity (compared to DMSO) PRL-2” value was 102%. The “% Phosphatase Activity (compared to DMSO) PRL-3” value in assay [3] (compared to DMSO) is 81%.
For `Cn1cnc2c(F)c(Nc3ccc(Br)cc3Cl)c(C(=O)NOCCO)cc21` [Selumetinib (AZD6244)], in that order: 92%, 93% and 87%.
The corresponding values for `CC(C)[C@H](O)C(=O)N[C@@H](C)C(=O)N[C@@H]1C(=O)N(C)CCc2ccccc21` [Semagacestat (LY450139)] are 104%, 120% and 86%.
For `Cl.NCCc1c[nH]c2ccc(O)cc12` [Serotonin HCl], in that order: 106%, 101% and 80%.
On to `Clc1ccc(C(Cn2ccnc2)OCc2csc3c(Cl)cccc23)c(Cl)c1` (stereo not drawn) [Sertaconazole nitrate], for which the “% Phosphatase Activity (compared to DMSO) PRL-1” value in assay [1] (activity compared to DMSO) turned out to be 110%. The “% Phosphatase Activity (compared to DMSO) PRL-2” value in assay [2] (activity compared to DMSO) is on record as 101%. For the same molecule, the “% Phosphatase Activity (compared to DMSO) PRL-3” value in assay [3] (activity compared to DMSO) came to 99%.
The corresponding values for `CN[C@H]1CC[C@@H](c2ccc(Cl)c(Cl)c2)c2ccccc21` [Sertraline HCl] are 96%, 101% and 75%.
For `CCCc1nn(C)c2c(=O)[nH]c(-c3cc(S(=O)(=O)N4CCN(C)CC4)ccc3OCC)nc12` [Sildenafil Citrate], in that order: 100%, 88% and 84%.
The corresponding values for `CCCc1nn(C)c2c(=O)[nH]c(-c3cc(S(=O)(=O)N4CCN(C)CC4)ccc3OCC)nc12.CS(=O)(=O)O` [Sildenafil Mesylate] are 94%, 79% and 94%.
Consider `CCCc1nn(C)c2c(=O)[nH]c(-c3cc(S(=O)(=O)N4CCN(C)CC4)ccc3OCC)nc12` [Sildenafil], for which the “% Phosphatase Activity (compared to DMSO) PRL-1” value in assay [1] (activity compared to DMSO) was found to be 75%. The “% Phosphatase Activity (compared to DMSO) PRL-2” value in assay [2] (activity compared to DMSO) was 72%. Moreover, the “% Phosphatase Activity (compared to DMSO) PRL-3” value in assay [3] (activity compared to DMSO) is reported as 99%.
The corresponding values for `COc1cc(C2Oc3cc([C@H]4Oc5cc(O)cc(O)c5C(=O)[C@@H]4O)ccc3OC2CO)ccc1O` (stereo partly drawn) [Silibinin] are 88%, 87% and 87%.
For `C[C@H](Cc1cc2c(c(C(N)=O)c1)N(CCCO)CC2)NCCOc1ccccc1OCC(F)(F)F` [Silodosin], in that order: 117%, 104% and 95%.
The corresponding values for `CCC(C)(C)C(=O)O[C@H]1C[C@@H](C)C=C2C=C[C@H](C)[C@H](CC[C@@H]3C[C@@H](O)CC(=O)O3)[C@H]21` [Simvastatin] are 84%, 94% and 91%.

The values are drawn from PMC8119466, “A screen of FDA-approved drugs identifies inhibitors of protein tyrosine phosphatase 4A3 (PTP4A3 or PRL-3)” (Scientific Reports, 2021).
